The values below come from patent publication US9062015B2, “Inhibitors of sphingosine kinase” (Merck Patent GmbH, priority 2009, dated 2015).

For this experiment, the target named is SphK1 (Homo sapiens, UniProt Q9NYA1). Briefly: SphK1 kinase assay, 384-well flashplate (biochemical assay). The conditions noted are these: IC50 ranges; 5 nM modified SphK1, 800 nM omega-biotinyl-D-erythro-sphingosine, 1 μM ATP, 30° C., 120 min; read-out: SphK1 Inhibition IC50. The method, then: Tests for the Inhibition of the SphK1 Activity
Chain of SphK1 (Q9NYA1 9-364 limits assumed): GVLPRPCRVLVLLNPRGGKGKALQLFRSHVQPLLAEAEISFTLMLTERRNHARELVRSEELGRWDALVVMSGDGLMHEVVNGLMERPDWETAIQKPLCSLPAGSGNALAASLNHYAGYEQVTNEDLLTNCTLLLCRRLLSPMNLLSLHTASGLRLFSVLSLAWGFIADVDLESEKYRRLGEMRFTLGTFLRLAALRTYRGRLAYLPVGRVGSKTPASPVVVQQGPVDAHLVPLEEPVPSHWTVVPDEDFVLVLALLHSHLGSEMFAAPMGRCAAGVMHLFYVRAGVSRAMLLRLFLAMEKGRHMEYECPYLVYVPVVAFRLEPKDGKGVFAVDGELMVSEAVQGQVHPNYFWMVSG
The kinase assay is carried out as a 384-well flashplate assay.
5 nM modified SphK1, 800 nM omega-biotinyl-D-erythro-sphingosine and 1 μM ATP (with 0.3 μCi of ^33P-ATP/well) are incubated in a total volume of 50 μl (25 mM HEPES, 5 mM MgCl2, 1 mM dithiothreitol, 0.01% of Brij35, 0.1% of BSA (fatty acid-free), pH 7.4) without or with test substance (5-10 concentrations) at 30° C. for 120 min. The reaction is terminated using 25 μl of 200 mM EDTA solution, filtered off with suction at room temperature after 30 min, and the cavities are washed 3 times with 100 μl of 0.9% NaCl solution. The non-specific proportion of the kinase reaction (blank) is determined using 0.5 mM NaCl. Radioactivity is measured in topcount. IC50 values are calculated using RS1.

As to `CC1(C)CCC(C)(C)c2cc(-c3cccc(N4CCC(N)CC4)n3)ccc21` [6′-(5,5,8,8-Tetramethyl-5,6,7,8-tetrahydronaphthalen-2-yl)-3,4,5,6-tetrahydro-2H-1,2′-bipyridinyl-4-ylamine], the IC50 is 0.1 to 1 µM.

For the molecule `CC1(C)CCC(C)(C)c2cc(-c3cccc(N4CCC(N5CCCC(O)C5)CC4)n3)ccc21` (centres unmarked) [6″-(5,5,8,8-Tetramethyl-5,6,7,8-tetrahydronaphthalen-2-yl)-3,4,5,6,3′,4′,5′,6′-octahydro-2H,2′H-[1,4′;1′,2″]terpyridin-3-ol], the IC50 lay within 0.1 to 1 µM.

One may read the IC50 as the point on the concentration scale where inhibition reaches its midpoint.
